Measurements as given in patent publication US12065410B2, “Crystal forms of 2-[4-[(2,3,4-trimethoxyphenyl)methyl]piperazin-1-yl]ethyl pyridine-3-carboxylate” (IMBRIA PHARMACEUTICALS, INC., priority 2020, dated 2024).
Converted amounts (≈) assume the structure as drawn.

Key:
Type in all cases: physicochemical
[1] = Approximate solubility of starting material at RT by stepwise solvent addition; conditions: thermodynamic from solid
Method: Starting with Form A, polymorph screening experiments were set up under 34 conditions using methods of slurry conversion, liquid vapor diffusion, slow evaporation, and slow cooling. The approximate solubility of starting material was determined at room temperature (RT). Accurately weighed samples of approximately 2 mg weight were added into a 3-mL glass vial. Solvents were then added step wise (50/50/200/700 μL) into the vials until the solids were dissolved or a total volume of 1 mL was reached.

[2] = Solid-form stability on heating, vacuum dehydration and re-exposure to ambient RH (XRPD)
Method: CV-8972 starting material is shown in blue; CV-8972 following incubation at 90° C. for 8 hours is shown in red; and CV-8972 following incubation at 65° C. in a vacuum for 2 hours is shown in purple. To see if the small DSC endotherm at 85.3° C. corresponds to polymorphic phase transition or dehydration, XRPD was performed on Form A after storing it in an oven at 90° C. for 8 hours.
Data from starting material is shown in blue; data following incubation for 2 hours in vacuum oven are shown in red; and data from heated material that was exposed to ambient relative humidity is shown in green. To monitor Form A in its dehydrated state, it was placed in a vacuum oven at 65° C. for 2 hours followed by its XRPD analysis.

[3] = Dynamic vapor sorption (DVS) with XRPD before and after
Source text: FIG. 8 is a dynamic vapor sorption isotherm plot. Cycle sorption is shown in red; cycle 1 desorption is shown in blue; and cycle 2 sorption is shown in green.
Pre-DVS data is shown in red; and post-DVS data is shown in blue.

[4] = Slurry conversion / water activity / slurry competition at RT, solids analysed by XRPD
Method: Slurry conversion experiments were conducted at RT in different solvent systems. Approximately 20 mg of starting material was suspended in 0.1 mL of solvent in HPLC vials. After the suspension was stirred magnetically for 48 hours at RT, the remaining solids were isolated for XRPD analysis.

COc1ccc(CN2CCN(CCOC(=O)c3cccnc3)CC2)c(OC)c1OC [Form A, 2-[4-[(2,3,4-trimethoxyphenyl)methyl]piperazin-1-yl]ethyl pyridine-3-carboxylate]
solubility ([1]; CHCl3, organic solvent or mixture, CHCI3, RT): < 1800 µg/mL | solubility ([1]; organic solvent or mixture, 1,4-Dioxane, RT): < 1700 µg/mL | solubility ([1]; organic solvent or mixture, ACN, RT): < 1500 µg/mL | solubility ([1]; organic solvent or mixture, Acetone, RT): < 2000 µg/mL | solubility ([1]; organic solvent or mixture, CPME, RT): < 1500 µg/mL | solubility ([1]; organic solvent or mixture, DCM, RT): < 2200 µg/mL | solubility ([1]; organic solvent or mixture, DMF, RT): 1800 to 6000 µg/mL (≈ 4.33 to 14.4 mM) | solubility ([1]; organic solvent or mixture, DMSO, RT): 5000 to 15000 µg/mL (≈ 12 to 36.1 mM) | solubility ([1]; organic solvent or mixture, EtOAc, RT): < 1800 µg/mL | solubility ([1]; organic solvent or mixture, EtOH, RT): < 1700 µg/mL | solubility ([1]; organic solvent or mixture, IPA, RT): < 2300 µg/mL | solubility ([1]; organic solvent or mixture, IPAc, RT): < 1700 µg/mL | solubility ([1]; organic solvent or mixture, MEK, RT): < 2000 µg/mL | solubility ([1]; organic solvent or mixture, MIBK, RT): < 2000 µg/mL | solubility ([1]; organic solvent or mixture, MeOH, RT): > 46000 µg/mL | solubility ([1]; organic solvent or mixture, NMP, RT): 6700 to 20000 µg/mL (≈ 16.1 to 48.1 mM) | solubility ([1]; organic solvent or mixture, THF, RT): < 2200 µg/mL | solubility ([1]; organic solvent or mixture, Toluene, RT): < 2300 µg/mL | solubility ([1]; organic solvent or mixture, n-Heptane, RT): < 1900 µg/mL | solubility ([1]; water, H2O, RT): > 44000 µg/mL | Solid form after vacuum oven (XRPD) ([2]; 65° C. vacuum for 2 hours): Form E | Solid form after oven storage (XRPD) ([2]; 90° C. for 8 hours): converts to Form E | Hygroscopicity (DVS) ([3]; 25° C., up to 80% RH): non hygroscopic | Solid Form after slurry conversion ([4]; Acetone, stirred 48 hours at RT): Form A | Solid Form after slurry conversion ([4]; Acetone/H2O (aw = 0.2, 941/59), 48 hours at RT): Form A | Solid Form after slurry conversion ([4]; Acetone/H2O (aw = 0.4, 857/143), 48 hours at RT): Form A | Solid Form after slurry conversion ([4]; Acetone/H2O (aw = 0.6, 726/274), 48 hours at RT): Form A | Solid Form after slurry conversion ([4]; Acetone/H2O (aw = 0.8, 492/508), 48 hours at RT): Form A | Solid Form after slurry conversion ([4]; H2O, 48 hours at RT): Form A | Relative stability among polymorphs ([4]; ambient temperature and relative humidity): most stable

COc1ccc(CN2CCN(CCOC(=O)c3cccnc3)CC2)c(OC)c1OC [CV-8972, 2-[4-[(2,3,4-trimethoxyphenyl)methyl]piperazin-1-yl]ethyl pyridine-3-carboxylate]
Water uptake (DVS) ([3]; 25° C. and 80% relative humidity (RH)): < 0.2% | Mass change (DVS) ([3]; beyond 80% RH, possible deliquescence): drastic increase in the mass change | XRPD of the sample after DVS ([3]; post-DVS versus pre-DVS): mostly similar to the starting material

COc1ccc(CN2CCN(CCOC(=O)c3cccnc3)CC2)c(OC)c1OC [Form E, 2-[4-[(2,3,4-trimethoxyphenyl)methyl]piperazin-1-yl]ethyl pyridine-3-carboxylate]
Solid form change on exposure to ambient temperature and humidity ([2]; ambient RH, rehydration): partial conversion to Form A | Solid form change in slurry competition between Forms D and E [4]: converted to Form A | Solid form change in water activity analysis ([4]; all conditions tested): converts to Form A
